Test results reported in publication PMC9967700, “Metabolism-Guided Optimization of Tryptophanol-Derived Isoindolinone p53 Activators” (Pharmaceuticals, 2023).
Read-outs that look alike come from different tables or passages of the source.

Columns and labels:
[1] = system: HCT116 p53+/+ cells; assay: Antiproliferative activity, sulforhodamine B (SRB) assay; assay type: cell-based, human; conditions: for S.I. (selectivity index): HCT116 p53−/− versus HCT116 p53+/+; for increase in the antiproliferative activity on bromine insertion at the C-2 indole: versus non-brominated parent isoindolinone
Experimental: (§1) Tumor cells were cultured in RPMI-1640 with UltraGlutamine (Lonza, VWR), supplemented with 10% fetal bovine serum (FBS; Gibco, Alfagene) and maintained in a humidified incubator at 37 °C with 5% CO2. Cell lines were seeded in 96-well plates at the cells/well density of 5.0 × 10^3.

[2] = system: HCT116 p53−/− cells; assay: as above; assay type: cell-based, human
Experimental: as §1

[3] = target: T1, wt p53 core domain (DNA Binding Domain; p53DBD; residues 94–312) (Homo sapiens, UniProt P04637); assay: Differential scanning fluorimetry (DSF) thermostability; conditions: 13d 2.5 mM, MQ 2 mM; for Tm of the wt p53DBD: 5% DMSO, mean ± SD, three assays
T1 construct: residues 94–312; host or cells: E. coli BL21 (DE3)-[pLys-S]
T1 sequence (P04637 94-312): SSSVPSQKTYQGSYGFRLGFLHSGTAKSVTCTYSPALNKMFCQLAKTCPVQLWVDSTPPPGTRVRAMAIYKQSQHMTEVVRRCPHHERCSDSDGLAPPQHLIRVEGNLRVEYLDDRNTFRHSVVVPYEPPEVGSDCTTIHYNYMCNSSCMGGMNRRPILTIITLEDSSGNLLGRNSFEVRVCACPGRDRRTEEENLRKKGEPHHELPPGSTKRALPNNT
Experimental: Expression of wt p53 core domain. The wt p53DBD was expressed in E. coli BL21 (DE3)-[pLys-S] in fusion with an N-terminal 21-residue tag containing the hexa-histidyl peptide (His6) and the thrombin recognition sequence, using the pET15b-based expression construct.
For protein expression 10 mL of an overnight (ON) culture was used to inoculate 1 L of LB medium supplemented with 1 mL of ampicillin 100 mg/mL and 1mL of zinc sulphate 100 mM. Culture medium was incubated at 37 °C, 140 rpm till an OD600nm of ~0.5. Protein expression was then induced by adding 0.5 mL of isopropyl β-D-1-thiogalactopyranoside (IPTG) 1M (Cfinal = 0.5 mM) and bacterial growth at 27 °C, 120 rpm ON. E. coli cells were pelleted by centrifugation for 10 min, 4000 rpm, at 4 °C. The cellular pellet was resuspended in 10 mL of Lysis buffer (Sodium phosphate 50 mM; NaCl 300 mM; glycerol 10%, pH 7.4) supplemented with 1mg/mL Lysozyme (Biochemica Applichem Panreac), 1 mM of phenylmethanesulfonyl fluoride (PMSF) (Merck), 5 µg of DNAse I (Panreac applichem) and 0.8% of Triton X-100 (Merck). After a first step of chemical lysis (30 min incubation, at 4 °C), cells were further disrupted by four cycles of sonication, at 4 °C, during 60 s at 50% duty free cycle on a Vibra Cell (Media Cibernetics). The lysate was subsequently cleared by centrifugation at 10,000 rpm, 40 min, at 4 °C and the supernatant containing the soluble proteins were collected.
Purification of human wt p53DBD and His6-tag removal. Immobilized Metal Affinity Chromatography (IMAC) was performed to purify the wt p53DBD using a nickel-nitrilotriacetic acid (Ni-NTA) agarose resin (QIAGEN). Briefly, 1 mL of Ni^2+ resin was pre-equilibrated using MilliQ water (3 × 1 mL) and Lysis buffer containing 10 mM imidazole (3 × 1 mL). The soluble fraction of cellular lysate was supplemented with 6.8 µL of β-mercaptoethanol and 33.2 µL of imidazole 3 M to obtain the final concentrations of […] and 10 mM, respectively. The lysate was added to the pre-equilibrated resin and protein binding was performed by incubation on an orbital shaker for one hour at 4 °C. The suspension was added to a 9 cm polypropylene conical column (Poly-Prep columns; BioRad) and protein purification was performed by gravity flow with an imidazole gradient consisting of three washing steps (2 × 5 mL of Lysis buffer, 20 mM imidazole; 2 × 5 mL of Lysis buffer, 50 mM imidazole; and 1 × 2.5 mL Lysis buffer, 75 mM imidazole) and an elution step with 5 × 500 µL of Lysis buffer, 250 mM imidazole. Protein eluted fractions were assessed by SDS-PAGE and Coomassie staining. Size exclusion chromatography was performed on the pooled protein eluted fractions, using an AKTA prime plus system (GE Healthcare) equipped with a UV detector (280 nm), a HiLoad 16/60, Superdex 200 prep grade column (GE Healthcare) and SEC buffer (25 mM potassium phosphate buffer, 150 mM NaCl, pH 7.5). The fractions corresponding to the wt p53DBD monomers were collected and treated with thrombin (8 units of thrombin/mg wt p53DBD). The thrombin cleavage was conducted for 18 h at rt at pH 7.4 in the assay buffer recommended by the supplier. Before and after digestion protein concentration was determined through Bradford method.
Thermostability of wt p53DBD core domain assessed by differential scanning fluorimetry (DSF). An amount of 5 μg of thrombin-cleaved wt p53DBD was incubated with testing compounds (2.5 mM) in 25 mM potassium phosphate buffer and 150 mM NaCl, pH 7.5 in a final volume of 50 µL containing 2 µL of 1 mM DTT or 1 mM TCEP to promote p53 core domain redox control, and Sypro Orange at 2.5x final concentration. The fluorescence was assessed on a C1000 Touch thermal cycler equipped with a CFX96 optical reaction module (BioRad) and the FRET channel (λexc 450–490 nm and λem 560–580 nm). Temperature was ramped from 20 to 90 °C with a rate of 0.2 °C/12 sec. The Tm values were calculated using Origin 8 Software. […]

[4] = Homo sapiens, HCT-116, 48 h treatment, mean ± SEM of 3–5 independent experiments, read-out: HCT116 p53+/+ GI50
[5] = Homo sapiens, HCT-116, 48 h, 48 h treatment, mean ± SEM of 3–5 independent experiments, read-out: HCT116 p53−/− GI50
[6] = Homo sapiens, HCT-116, 48 h treatment, mean ± SEM of 5 independent experiments, read-out: HCT116 p53+/+ GI50
[7] = Homo sapiens, HCT-116, 48 h, 48 h treatment, mean ± SEM of 5 independent experiments, read-out: HCT116 p53−/− GI50

## O=C1c2ccccc2[C@@]2(c3ccc(F)cc3)OC[C@H](Cc3c(Br)[nH]c4ccccc34)N12 [Compound 13g, (3S, 9bR)-3-((2-bromo-1H-indol-3-yl)methyl)-9b-(4-fluorophenyl)-2,3-dihydrooxazolo[2,3-a]isoindol-5(9bH)-one]
[1]
  S.I. (selectivity index): 1.0
  increase in the antiproliferative activity on bromine insertion at the C-2 indole: 1.2 fold
[1]; [4]
  GI50: 6.95 ± 0.6 µM
[2]; [5]
  GI50: 6.7 ± 1.6 µM

## CCn1c(Br)c(C[C@H]2CO[C@]3(c4ccccc4)c4ccccc4C(=O)N23)c2ccccc21 [Compound 13j, (3S, 9bR)-3-((2-bromo-1-ethyl-1H-indol-3-yl)methyl)-9b-phenyl-2,3-dihydrooxazolo[2,3-a]isoindol-5(9bH)-one]
[1]
  S.I. (selectivity index): 1.2
[1]; [4]
  GI50: 13 ± 1.01 µM
[2]; [5]
  GI50: 16 ± 2 µM

## CS(=O)(=O)n1c(Br)c(C[C@H]2CO[C@]3(c4ccccc4)c4ccccc4C(=O)N23)c2ccccc21 [Compound 13n, (3S, 9bR)-3-((2-bromo-1-(methylsulfonyl)-1H-indol-3-yl)methyl)-9b-phenyl-2,3-dihydrooxazolo[2,3-a]isoindol-5(9bH)-one]
[1]
  S.I. (selectivity index): 1.1
[1]; [4]
  GI50: 12.5 ± 0.5 µM
[2]; [5]
  GI50: 13.5 ± 0.5 µM

## O=C1c2ccccc2[C@@]2(c3ccccc3)OC[C@H](Cc3c(Br)[nH]c4ccccc34)N12 [Compound 13a, (3S, 9bR)-3-((2-bromo-1H-indol-3-yl)methyl)-9b-phenyl-2,3-dihydrooxazolo[2,3-a]isoindol-5(9bH)-one]
[1]
  S.I. (selectivity index): 0.7
[1]; [4]
  GI50: 14.6 ± 0.4 µM
[2]; [5]
  GI50: 10.5 ± 2.6 µM

## C=C1C(=O)C2CCN1CC2 [MQ, Methylene quinuclidinone, reference compound]
[3]; DTT 1 mM
  ΔTm of the wt p53DBD: 2.28 °C
[3]; DTT (1 mM)
  Tm of the wt p53DBD: 42.22 ± 0.30 °C
[3]; TCEP 1 mM
  ΔTm of the wt p53DBD: 2.11 °C
[3]; TCEP (1 mM)
  Tm of the wt p53DBD: 43.27 ± 1.15 °C

## O=C1c2ccccc2[C@@]2(c3ccccc3)OC[C@H](Cc3c(Br)n(C(=O)c4ccccc4)c4ccccc34)N12 [Compound 13l, (3S, 9bR)-3-((1-benzoyl-2-bromo-1H-indol-3-yl)methyl)-9b-phenyl-2,3-dihydrooxazolo[2,3-a]isoindol-5(9bH)-one]
[1]; [4]
  GI50: 23.2 ± 1.15 µM
[2]; [5]
  GI50: > 50 µM

## CC(=O)n1c(Br)c(C[C@H]2CO[C@]3(c4ccccc4)c4ccccc4C(=O)N23)c2ccccc21 [Compound 13m, (3S, 9bR)-3-((1-acetyl-2-bromo-1H-indol-3-yl)methyl)-9b-phenyl-2,3-dihydrooxazolo[2,3-a]isoindol-5(9bH)-one]
[1]
  S.I. (selectivity index): 1.7
[1]; [4]
  GI50: 13.05 ± 0.05 µM
[2]; [5]
  GI50: 22.5 ± 2.5 µM

## Cn1c(Br)c(C[C@H]2CO[C@]3(c4ccccc4)c4ccccc4C(=O)N23)c2ccccc21 [Compound 13c, (3S, 9bR)-3-((2-bromo-1-methyl-1H-indol-3-yl)methyl)-9b-phenyl-2,3-dihydrooxazolo[2,3-a]isoindol-5(9bH)-one]
[1]
  S.I. (selectivity index): 0.4
[1]; [4]
  GI50: 25.6 ± 1.4 µM
[2]; [5]
  GI50: 10.8 ± 2 µM

## O=C1c2ccccc2[C@@]2(c3ccc(Cl)cc3)OC[C@H](Cc3c(Br)[nH]c4ccccc34)N12 [Compound 13h, (3S, 9bR)-3-((2-bromo-1H-indol-3-yl)methyl)-9b-(4-chlorophenyl)-2,3-dihydrooxazolo[2,3-a]isoindol-5(9bH)-one]
[1]
  S.I. (selectivity index): 1.0
  increase in the antiproliferative activity on bromine insertion at the C-2 indole: 1.5 fold
[1]; [4]
  GI50: 5.8 ± 0.3 µM
[2]; [5]
  GI50: 5.8 ± 0.4 µM

## CCCn1c(Br)c(C[C@@H]2CO[C@@]3(c4ccccc4)c4ccccc4C(=O)N23)c2ccccc21 [13d′, (3R, 9bS)-3-((2-bromo-1-propyl-1H-indol-3-yl)methyl)-9b-phenyl-2,3-dihydrooxazolo[2,3-a]isoindol-5(9bH)-one]
[1]; [4]
  GI50: 31.1 ± 4 µM
[2]; [5]
  GI50: 25.4 ± 1.2 µM

## Cc1ccc(S(=O)(=O)n2c(Br)c(C[C@H]3CO[C@]4(c5ccccc5)c5ccccc5C(=O)N34)c3ccccc32)cc1 [Compound 13o, (3S, 9bR)-3-((2-bromo-1-tosyl-1H-indol-3-yl)methyl)-9b-phenyl-2,3-dihydrooxazolo[2,3-a]isoindol-5(9bH)-one]
[1]; HCT116 p53+/+
  less active derivative compared with SLMP53-2 (7): 4.0 fold
[1]
  S.I. (selectivity index): 0.6
[1]; [4]
  GI50: 34 ± 4 µM
[2]; [5]
  GI50: 20.4 ± 1.15 µM

## C[C@]12OC[C@H](C[C@H]3C(=O)Nc4ccccc43)N1C(=O)c1ccccc12 [SLMP53-1_M3b, (3S,9bR)-9b-methyl-3-(((R)-2-oxoindolin-3-yl)methyl)-2,3-dihydrooxazolo[2,3-a]isoindol-5(9bH)-one]
[1]; [6]
  GI50: > 50 µM
[2]; [7]
  GI50: > 50 µM

## C[C@]12OC[C@H](C[C@@H]3C(=O)Nc4ccccc43)N1C(=O)c1ccccc12 [SLMP53-1_M3a, (3S,9bR)-9b-methyl-3-(((S)-2-oxoindolin-3-yl)methyl)-2,3-dihydrooxazolo[2,3-a]isoindol-5(9bH)-one]
[1]; [6]
  GI50: > 50 µM
[2]; [7]
  GI50: > 50 µM

## COc1ccc(C2=N[C@@H](c3ccc(Cl)cc3)[C@@H](c3ccc(Cl)cc3)N2C(=O)N2CCNC(=O)C2)c(OC(C)C)c1 [nutlin-3a, reference compound]
[1]; control of the SRB assay, 48 h, read-out: GI50 in HCT116 p53+/+
  GI50: 3.2 ± 1 µM
[2]; control of the SRB assay, 48 h, read-out: GI50 in HCT116 p53−/−
  GI50: 24 ± 0.7 µM

## O=C1c2ccccc2[C@@]2(c3ccc(Cl)c([N+](=O)[O-])c3)OC[C@H](Cc3c(Br)[nH]c4ccccc34)N12 [Compound 13i, (3S, 9bR)-3-((2-bromo-1H-indol-3-yl)methyl)-9b-(4-chloro-3-nitrophenyl)-2,3-dihydrooxazolo[2,3-a]isoindol-5(9bH)-one]
[1]
  S.I. (selectivity index): 1.0
[1]; [4]
  GI50: 23.3 ± 0.9 µM
[2]; [5]
  GI50: 22.2 ± 1.2 µM
